Converted amounts (≈) assume the structure as drawn.

What all share (test): MIC determination
Format in all cases: cell-based

For one assay, the system named is S. aureus ATCC 29213. As to conditions: Staphylococcus aureus, ATCC29213, S. aureus ATCC 29213; read-out: MIC.
The test system of assay [1] is S. aureus BAA-1556 (USA 300). As to conditions: Staphylococcus aureus; S. aureus BAA-1556 (USA 300); read-out: MIC.
For assay [2], the system named is S. aureus UNT96, NRS710, MP-618 (USA 100, Erythro >8). The conditions noted are these: Staphylococcus aureus; S. aureus UNT96, NRS710, MP-618 (USA 100, Erythro >8); read-out: MIC.
Assay [3] deals with S. aureus UNT-146, MP-620, TP 506 (ermA). As to conditions: Staphylococcus aureus; S. aureus UNT-146, MP-620, TP 506 (ermA); read-out: MIC.
Assay [4] has as its system S. aureus UNT-120, MP-619, NRS22 (USA 600, GISA). As to conditions: Staphylococcus aureus; S. aureus UNT-120, MP-619, NRS22 (USA 600, GISA); read-out: MIC.
The subject of a further assay is S. pneumoniae ATCC 49619. The conditions noted are these: Streptococcus pneumoniae, ATCC49619; S. pneumoniae ATCC 49619; read-out: MIC.
For assay [5], the system named is S. pneumoniae UNT-038, MP-626, TP 160 (mefA). The conditions noted are these: Streptococcus pneumoniae.
Assay [6] deals with S. pneumoniae UNT-039, MP-627, TP1517 (mefA). As to conditions: Streptococcus pneumoniae.
The test system of assay [7] is S. pneumoniae TP 1579 (ermB + tet(M, O)). As to conditions: Streptococcus pneumoniae.
Assay [8] deals with S. pneumoniae TP 1537 (ermB + mefA). As to conditions: Streptococcus pneumoniae; S. pneumoniae TP 1537 (ermB + mefA); read-out: MIC.
For a further assay, the system named is S. pyogenes ATCC 19615. As to conditions: Streptococcus pyogenes, ATCC19615; S. pyogenes ATCC 19615; read-out: MIC.
Assay [9] relates to S. pyogenes UNT-014, MP-625 MacRes. As to conditions: Streptococcus pyogenes; S. pyogenes UNT-014, MP-625 MacRes; read-out: MIC.
Another assay deals with E. faecalis ATCC 29212. The conditions noted are these: Enterococcus faecalis, ATCC29212, read-out: MIC.
In another assay the test system is E. faecalis UNT-047 VRE. As to conditions: Enterococcus faecalis; E. faecalis UNT-047 VRE; read-out: MIC.
In the next assay the test system is K. pneumoniae ATCC 10031. As to conditions: Klebsiella pneumoniae, ATCC10031; K. pneumoniae ATCC 10031; read-out: MIC.
The subject of assay [10] is K. pneumoniae IHMA 658692; KPC-2. The conditions noted are these: Klebsiella pneumoniae; K. pneumoniae IHMA 658692; KPC-2; read-out: MIC.
The test system of another assay is E. coli ATCC 25922. As to conditions: Escherichia coli, ATCC25922, E. coli ATCC 25922; read-out: MIC.
For the next assay, the system named is E. coli GUEST131 (NDM-1). The conditions noted are these: Escherichia coli.
The subject of another assay is P. aeruginosa ATCC 27853. The conditions noted are these: Pseudomonas aeruginosa, ATCC27853; P. aeruginosa ATCC 27853; read-out: MIC.
The next assay relates to H. influenzae ATCC 49247. The conditions noted are these: Haemophilus influenzae, ATCC49247; H. influenzae ATCC 49247; read-out: MIC.

As for `CSC1O[C@H]([C@H](NC(=O)[C@@H]2[C@@H]3OCCCC[C@H]3CN2C)[C@H](C)Cl)C(O)C(O)[C@H]1O` (stereo partly shown) [FSA-24040], the MIC with S. aureus ATCC 29213 was at most 0.0313 µg/mL; in assay [1], over 32 µg/mL; in assay [2] it was over 32 µg/mL; in [3], over 32 µg/mL; in [4], over 32 µg/mL; in the assay with S. pneumoniae ATCC 49619 it was at most 0.0313 µg/mL. Further, the MIC in [5] was at most 0.0313 µg/mL; in [6] it was at most 0.0313 µg/mL; in [7], at most 0.0313 µg/mL; in assay [8], over 32 µg/mL; with S. pyogenes ATCC 19615, at most 0.0313 µg/mL; in assay [9], at most 0.0313 µg/mL. For the same compound, the MIC was 32 µg/mL (≈ 70.6 µM) in the assay with E. faecalis ATCC 29212; over 32 µg/mL with E. faecalis UNT-047 VRE; 8 µg/mL (≈ 17.7 µM) in the assay with K. pneumoniae ATCC 10031; over 32 µg/mL in assay [10]; over 32 µg/mL in the assay on E. coli ATCC 25922; over 32 µg/mL against E. coli GUEST131 (NDM-1). Further, the MIC in the assay on P. aeruginosa ATCC 27853 is over 32 µg/mL; in the assay with H. influenzae ATCC 49247, 8 µg/mL (≈ 17.7 µM).
Turning to `CSC1O[C@H]([C@H](NC(=O)[C@H]2NC[C@@H]3CCCO[C@H]32)[C@H](C)Cl)C(O)[C@@H](O)[C@H]1O` (stereo partly shown) [FSA-24041], the MIC was 0.5 µg/mL (≈ 1.18 µM) with S. aureus ATCC 29213; over 32 µg/mL in [1]; over 32 µg/mL in assay [2]; over 32 µg/mL in assay [3]; over 32 µg/mL in [4]; 0.0625 µg/mL (≈ 0.147 µM) in the assay with S. pneumoniae ATCC 49619. The MIC was 0.0625 µg/mL (≈ 0.147 µM) in assay [5]; at most 0.0313 µg/mL in assay [6]; at most 0.0313 µg/mL in assay [7]; over 32 µg/mL in assay [8]; at most 0.0313 µg/mL with S. pyogenes ATCC 19615; 0.0625 µg/mL (≈ 0.147 µM) in assay [9]. The MIC was 32 µg/mL (≈ 75.3 µM) with E. faecalis ATCC 29212; over 32 µg/mL in the assay with E. faecalis UNT-047 VRE; over 32 µg/mL in the assay with K. pneumoniae ATCC 10031; over 32 µg/mL in [10]; over 32 µg/mL in the assay on E. coli ATCC 25922; over 32 µg/mL in the assay on E. coli GUEST131 (NDM-1). Also, the MIC is over 32 µg/mL in the assay with P. aeruginosa ATCC 27853 and 32 µg/mL (≈ 75.3 µM) with H. influenzae ATCC 49247.

For the origin of these results see patent publication US11767341B2, “Lincosamide antibiotics and uses thereof” (President and Fellows of Harvard College, priority 2017, dated 2023).
